# Measurements published in PubChem BioAssay (NCI).
#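 A five-concentration, 48-hour dose response in 96-well plates underlies each endpoint, interpolated linearly between surrounding concentrations. GI50 marks 50% less growth. Definition used: TGI = concentration required for complete inhibition of growth.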
# Assays:
# Test in all cases: inhibition of tumour cell growth, NCI panel, 48 h
# [1] = system: 786-0 renal
# [2] = system: A498 renal
# [3] = system: A549 NSCLC
# [4] = system: ACHN renal
# [5] = system: BT-549 breast
# [6] = system: CAKI-1 renal
# [7] = system: CCRF-CEM leukemia
# [8] = system: COLO 205 colon
# [9] = system: DU-145 prostate
# [10] = system: EKVX NSCLC
# [11] = system: HCC-2998 colon
# [12] = system: HCT-116 colon
# [13] = system: HCT-15 colon
# [14] = system: HL-60(TB) leukemia
# [15] = system: HOP-62 NSCLC
# [16] = system: HOP-92 NSCLC
# [17] = system: HS 578T breast
# [18] = system: HT29 colon
# [19] = system: IGROV1 ovarian
# [20] = system: K-562 leukemia
# [21] = system: KM12 colon
# [22] = system: LOX IMVI melanoma
# [23] = system: M14 melanoma
# [24] = system: MALME-3M melanoma
# [25] = system: MDA-MB-231 breast
# [26] = system: MDA-MB-435
# [27] = system: MOLT-4 leukemia
# [28] = system: NCI-H226 lung
# [29] = system: NCI-H23 lung
# [30] = system: NCI-H460 lung
# [31] = system: NCI-H522 lung
# [32] = system: NCI/ADR-RES ovarian
# [33] = system: OVCAR-3 ovarian
# [34] = system: OVCAR-4 ovarian
# [35] = system: OVCAR-5 ovarian
# [36] = system: OVCAR-8 ovarian
# [37] = system: PC-3 prostate
# [38] = system: RPMI-8226 leukemia
# [39] = system: RXF 393 renal
# [40] = system: SF-268 CNS
# [41] = system: SF-295 CNS
# [42] = system: SF-539 CNS
# [43] = system: SK-MEL-2 melanoma
# [44] = system: SK-MEL-28 melanoma
# [45] = system: SK-MEL-5 melanoma
# [46] = system: SK-OV-3 ovarian
# [47] = system: SN12C renal
# [48] = system: SNB-19 CNS
# [49] = system: SNB-75 CNS
# [50] = system: SR leukemia
# [51] = system: SW-620 colon
# [52] = system: T-47D breast
# [53] = system: TK-10 renal
# [54] = system: U251 CNS
# [55] = system: UACC-257 melanoma
# [56] = system: UACC-62 melanoma
# [57] = system: UO-31 renal
# [58] = system: MCF7 breast
smiles,measurement,setting,value
COc1ccc(/C=C(/c2ccccc2)[N+](=O)[O-])c(OC)c1,GI50,[1],1.62 µM
same,TGI,[1],3.16 µM
same,GI50,[2],1.55 µM
same,TGI,[2],2.99 µM
same,GI50,[3],2.32 µM
same,TGI,[3],6.66 µM
same,GI50,[4],1.49 µM
same,TGI,[4],2.81 µM
same,GI50,[5],1.48 µM
same,TGI,[5],2.89 µM
same,GI50,[6],1.23 µM
same,TGI,[6],2.64 µM
same,GI50,[7],0.46 µM
same,TGI,[7],4.76 µM
same,GI50,[8],2.04 µM
same,TGI,[8],4.28 µM
same,GI50,[9],1.44 µM
same,TGI,[9],2.92 µM
same,GI50,[10],1.73 µM
same,TGI,[10],3.98 µM
same,GI50,[11],1.92 µM
same,TGI,[11],3.4 µM
same,GI50,[12],1.02 µM
same,TGI,[12],2.29 µM
same,GI50,[13],0.576 µM
same,TGI,[13],2.13 µM
same,GI50,[14],1.15 µM
same,TGI,[14],5.25 µM
same,GI50,[15],2.42 µM
same,TGI,[15],4.77 µM
same,GI50,[16],1.26 µM
same,TGI,[16],2.76 µM
same,GI50,[17],2.2 µM
same,TGI,[17],6.65 µM
same,GI50,[18],2.88 µM
same,TGI,[18],10.3 µM
same,GI50,[19],1.47 µM
same,TGI,[19],2.95 µM
same,GI50,[20],0.494 µM
same,TGI,[20],38.2 µM
same,GI50,[21],1.72 µM
same,TGI,[21],3.31 µM
same,GI50,[22],0.399 µM
same,TGI,[22],1.63 µM
same,GI50,[23],1.48 µM
same,TGI,[23],3.51 µM
same,GI50,[24],1.58 µM
same,TGI,[24],3.3 µM
same,GI50,[25],2 µM
same,TGI,[25],4.16 µM
same,GI50,[26],1.45 µM
same,TGI,[26],2.97 µM
same,GI50,[27],2.14 µM
same,TGI,[27],6.77 µM
same,GI50,[28],1.95 µM
same,TGI,[28],4.49 µM
same,GI50,[29],1.93 µM
same,TGI,[29],4.76 µM
same,GI50,[30],1.87 µM
same,TGI,[30],3.87 µM
same,GI50,[31],1.56 µM
same,TGI,[31],4.02 µM
same,GI50,[32],1.72 µM
same,TGI,[32],5.63 µM
same,GI50,[33],1.69 µM
same,TGI,[33],3.09 µM
same,GI50,[34],1.55 µM
same,TGI,[34],2.92 µM
same,GI50,[35],1.92 µM
same,TGI,[35],3.74 µM
same,GI50,[36],1.66 µM
same,TGI,[36],5.14 µM
same,GI50,[37],1.32 µM
same,TGI,[37],2.79 µM
same,GI50,[38],0.372 µM
same,TGI,[38],1.64 µM
same,GI50,[39],1.53 µM
same,TGI,[39],3.03 µM
same,GI50,[40],1.65 µM
same,TGI,[40],3.14 µM
same,GI50,[41],1.97 µM
same,TGI,[41],3.86 µM
same,GI50,[42],1.58 µM
same,TGI,[42],2.94 µM
same,GI50,[43],1.91 µM
same,TGI,[43],5.28 µM
same,GI50,[44],1.5 µM
same,TGI,[44],3.03 µM
same,GI50,[45],1.79 µM
same,TGI,[45],3.26 µM
same,GI50,[46],3.1 µM
same,TGI,[46],9.57 µM
same,GI50,[47],1.47 µM
same,TGI,[47],3 µM
same,GI50,[48],1.65 µM
same,TGI,[48],3.05 µM
same,GI50,[49],0.363 µM
same,TGI,[49],1.84 µM
same,GI50,[50],0.641 µM
same,TGI,[50],16.2 µM
same,GI50,[51],1.73 µM
same,TGI,[51],4.08 µM
same,GI50,[52],0.668 µM
same,TGI,[52],4.21 µM
same,GI50,[53],2.24 µM
same,TGI,[53],4.18 µM
same,GI50,[54],1.48 µM
same,TGI,[54],3.15 µM
same,GI50,[55],1.55 µM
same,TGI,[55],3.38 µM
same,GI50,[56],1.22 µM
same,TGI,[56],2.7 µM
same,GI50,[57],1.23 µM
same,TGI,[57],2.47 µM
C[C@H](c1ccc(Cl)cc1[N+](=O)[O-])N1C(=O)c2cc(I)ccc2N=C(OCCCN2CCN(C)CC2)[C@@H]1c1ccc(Cl)cc1,GI50,[2],2.08 µM
same,TGI,[2],5.42 µM
same,GI50,[3],1.57 µM
same,TGI,[3],3.14 µM
same,GI50,[7],2.18 µM
same,TGI,[7],5.41 µM
same,GI50,[8],1.69 µM
same,TGI,[8],3.27 µM
same,GI50,[14],2.44 µM
same,TGI,[14],4.41 µM
same,GI50,[17],2.02 µM
same,TGI,[17],6.47 µM
same,GI50,[18],1.91 µM
same,TGI,[18],3.49 µM
same,GI50,[20],1.81 µM
same,TGI,[20],4.03 µM
same,GI50,[58],1.64 µM
same,TGI,[58],3.26 µM
same,GI50,[34],1.6 µM
same,TGI,[34],3.15 µM
same,GI50,[36],1.61 µM
same,TGI,[36],3.4 µM
same,GI50,[38],2.33 µM
same,TGI,[38],6.5 µM
same,GI50,[39],1.73 µM
same,TGI,[39],3.25 µM
same,GI50,[43],2.11 µM
same,TGI,[43],4.05 µM
same,GI50,[46],1.79 µM
same,TGI,[46],3.24 µM
same,GI50,[49],1.71 µM
same,TGI,[49],4.27 µM
same,GI50,[50],1.65 µM
same,TGI,[50],3.88 µM
COc1ccc(-c2cc(=O)n(-c3nc4ccccc4[nH]3)[nH]2)cc1OC,GI50,[1],12.4 µM
same,TGI,[1],> 100 µM
same,GI50,[2],2.33 µM
same,TGI,[2],8.72 µM
same,GI50,[3],4.72 µM
same,TGI,[3],81.9 µM
same,GI50,[4],5.72 µM
same,TGI,[4],> 100 µM
same,GI50,[5],23.7 µM
same,TGI,[5],> 100 µM
same,GI50,[6],4.79 µM
same,TGI,[6],> 100 µM
same,GI50,[7],2.66 µM
same,TGI,[7],38.1 µM
same,GI50,[8],35.8 µM
same,TGI,[8],> 100 µM
same,GI50,[9],17.5 µM
same,TGI,[9],> 100 µM
same,GI50,[11],16.1 µM
same,TGI,[11],> 100 µM
same,GI50,[12],5.83 µM
same,TGI,[12],> 100 µM
same,GI50,[13],3.7 µM
same,TGI,[13],> 100 µM
same,GI50,[14],3.59 µM
same,TGI,[14],19.6 µM
same,GI50,[15],9.36 µM
same,TGI,[15],> 100 µM
same,GI50,[17],4 µM
same,TGI,[17],66.6 µM
same,GI50,[18],30.5 µM
same,TGI,[18],> 100 µM
same,GI50,[19],6.08 µM
same,TGI,[19],76.2 µM
same,GI50,[20],3.73 µM
same,TGI,[20],25.7 µM
same,GI50,[21],8.56 µM
same,TGI,[21],> 100 µM
same,GI50,[22],6.73 µM
same,TGI,[22],> 100 µM
same,GI50,[23],6.74 µM
same,TGI,[23],> 100 µM
same,GI50,[58],4.74 µM
same,TGI,[58],> 100 µM
same,GI50,[25],19.5 µM
same,TGI,[25],> 100 µM
same,GI50,[26],3.87 µM
same,TGI,[26],> 100 µM
same,GI50,[27],0.261 µM
same,TGI,[27],0.648 µM
same,GI50,[28],15 µM
same,TGI,[28],67.1 µM
same,GI50,[30],3.91 µM
same,TGI,[30],68.3 µM
same,GI50,[31],2.96 µM
same,TGI,[31],9.14 µM
same,GI50,[32],3.57 µM
same,TGI,[32],33.3 µM
same,GI50,[33],12.9 µM
same,TGI,[33],> 100 µM
same,GI50,[34],7.9 µM
same,TGI,[34],> 100 µM
same,GI50,[35],28.2 µM
same,TGI,[35],> 100 µM
same,GI50,[36],4.43 µM
same,TGI,[36],63.5 µM
same,GI50,[37],3.8 µM
same,TGI,[37],> 100 µM
same,GI50,[38],4.61 µM
same,TGI,[38],41.3 µM
same,GI50,[39],1.24 µM
same,TGI,[39],11.9 µM
same,GI50,[40],10.2 µM
same,TGI,[40],> 100 µM
same,GI50,[41],1.3 µM
same,TGI,[41],4.82 µM
same,GI50,[42],6.36 µM
same,TGI,[42],48.9 µM
same,GI50,[43],4.77 µM
same,TGI,[43],23.6 µM
same,GI50,[44],13.9 µM
same,TGI,[44],> 100 µM
same,GI50,[45],4.08 µM
same,TGI,[45],34.9 µM
same,GI50,[46],35.3 µM
same,TGI,[46],> 100 µM
same,GI50,[47],8.85 µM
same,TGI,[47],> 100 µM
same,GI50,[48],7.06 µM
same,TGI,[48],> 100 µM
same,GI50,[49],4.99 µM
same,TGI,[49],81.1 µM
same,GI50,[50],3.85 µM
same,TGI,[50],> 100 µM
same,GI50,[51],3.41 µM
same,TGI,[51],> 100 µM
same,GI50,[54],4.2 µM
same,TGI,[54],> 100 µM
same,GI50,[55],6.4 µM
same,TGI,[55],61 µM
same,GI50,[56],3.79 µM
same,TGI,[56],24.1 µM
same,GI50,[57],3.2 µM
same,TGI,[57],18.6 µM
